IC50 and IC90 data for 15 compounds are collected here from ChEMBL document CHEMBL1131883, “Synthesis and evaluation of benzoxazinones as HIV-1 reverse transcriptase inhibitors. Analogs of Efavirenz (SUSTIVA)” (Bioorg Med Chem Lett, 1999).

Experiment [1] concerns the target Human immunodeficiency virus type 1 reverse transcriptase (Human immunodeficiency virus 1, UniProt Q72547). The experiment can be described thus: Inhibitory activity against HIV-1 reverse transcriptase.
For experiment [2], the target named is Human immunodeficiency virus type 1 reverse transcriptase (Human immunodeficiency virus 1) (UniProt Q72547).

A word on the IC50: it is the concentration that inhibits the measured activity by half. A higher IC50 goes with a need for much substance. As usually defined, the IC90 is the point of the concentration-response curve where the effect stands at 90%. In experiment [1], `CNc1ccc2c(c1)C(C#CC1CC1)(C(F)(F)F)OC(=O)N2` (stereo not given) gave an IC50 of 608 nM. For the same compound, it took 9.02 nM to reach the 90% level in experiment [2] (IC90).
For `CCCC#CC1(C(F)(F)F)OC(=O)Nc2cccc(F)c21` (stereo not given), in experiment [1], the IC50 was determined as 156 nM. Also, the 90% effect level in experiment [2] (IC90) was put at 5.64 nM.
The like results for `CC(C)C#CC1(C(F)(F)F)OC(=O)Nc2ccc(N)cc21` (stereo not given) were, in that order, 896 nM and 27.5 nM.
The like results for `O=C1Nc2cccc(F)c2C(C#CC2CC2)(C(F)(F)F)O1` (stereo not given) were, in that order, 78 nM and 4.34 nM.
For the compound `CCC#CC1(C(F)(F)F)OC(=O)Nc2ccc([N+](=O)[O-])cc21` (stereo not given), the IC50 in experiment [1] is 276 nM. It took 2.23 nM to reach the 90% level in experiment [2] (IC90).
Turning to `CCCC#CC1(C(F)(F)F)OC(=O)Nc2ccc(N)cc21` (stereo not given), inhibition in experiment [1] was half-maximal at 1510 nM (IC50). In experiment [2], this compound came in with an IC90 of 33.5 nM.
Taken in the same sequence, the figures for `CNc1ccc2c(c1)C(C#CC(C)C)(C(F)(F)F)OC(=O)N2` (stereo not given) were 473 nM and 10.2 nM.
Turning to `CC(C)C#CC1(C(F)(F)F)OC(=O)Nc2ccc([N+](=O)[O-])cc21` (stereo not given), the IC50 in experiment [1] was determined as 199 nM. For the same compound, in experiment [2], the 90% effect level (IC90) was put at 3.35 nM.
The like results for `CCC#CC1(C(F)(F)F)OC(=O)Nc2ccc(N)cc21` (stereo not given) were, in that order, 1890 nM and 45.7 nM.
Taken in the same sequence, the figures for `CCCC#CC1(C(F)(F)F)OC(=O)Nc2ccc([N+](=O)[O-])cc21` (stereo not given) were 304 nM and 4.57 nM.
As to `CCC#CC1(C(F)(F)F)OC(=O)Nc2cccc(F)c21` (stereo not given), it took 127 nM to reach half-maximal inhibition in experiment [1] (IC50). The compound further had an IC90 in experiment [2] of 4.18 nM.
As to `CC(=O)Nc1ccc2c(c1)C(C#CC(C)C)(C(F)(F)F)OC(=O)N2` (stereo not given), the half-inhibitory concentration (IC50) in experiment [1] is over 2000 nM. This compound also came in with a concentration for an effect of 90% (IC90) in experiment [2] of 500 nM.
With `Nc1ccc2c(c1)C(C#CC1CC1)(C(F)(F)F)OC(=O)N2` (stereo not given), the IC50 in experiment [1] came out at 802 nM. In addition, the IC90 in experiment [2] is 20.6 nM.
On to `O=C1Nc2ccc([N+](=O)[O-])cc2C(C#CC2CC2)(C(F)(F)F)O1` (stereo not given), for which the IC50 in experiment [1] was 209 nM. This compound displayed an IC90 in experiment [2] of 0.83 nM.
The like results for `CC(=O)Nc1ccc2c(c1)C(C#CC1CC1)(C(F)(F)F)OC(=O)N2` (stereo not given) were, in that order, over 2000 nM and 296 nM.
